Our source for the viability, T/C and IC50 values is PubChem BioAssay AID2060513 (Molecular Pharmacology Branch, DTP, NCI, 2025).

“And” between values parts separate entries of the source, which are not always exact repeats. Identical values can stand only once.

In this assay the test system is 299254-011-R-J1-PDC complex spheroids viability. Description: Anticancer human tumor 299254-011-R-J1-PDC patient-derived melanoma cell line growth inhibition [GQUAD]. The note with it: for viability, T/C: stronger effect = lower value. An excerpt: DNA G-quadruplex Stabilizer Agents in Combinations in Complex Spheroids
A high-throughput screen of multi-cell type tumor spheroids was designed to identify active combinations of DNA G-quadruplex stabilizer agents and targeted small molecules. Complex spheroids include a stromal component modeled by human endothelial cells (HUVEC) and fibroblasts modeled by human mesenchymal stem cells (MSCs). The concentration ranges selected for each drug and investigational agent were based upon clinically achievable concentrations if the clinical Cmax of the agent was known.
Compounds. The drugs and investigational agents: pidnarulex (CX-5461; NSC782164), APTO-253 (NSC789042), BRACO-19 (NSC847499), peposertib (NSC802822), ceralasertib (NSC780249), elimusertib (NSC800525), camonsertib (NSC841442), AZD-1390 (NSC803789), olaparib (NSC753686), talazoparib (NSC767125), ART-558 (NSC835418), sotorasib (NSC818433), MRTX-1133 (NSC836407), SN-38 (NSC673596), topotecan (NSC609699), etoposide (NSC141540), doxorubicin (NSC123127), gemcitabine (NSC613327), 5-fluorouracil (NSC19893), paclitaxel (NSC125973), vemurafenib (NSC761431), panobinostat (NSC761190), R-306465 (JNJ-16241199; NSC773264), adavosertib (NSC754352), TP-3654 (NSC805149), carboplatin (NSC241240), KSQ-4279 (NSC840948), and staurosporine (NSC755774) were obtained from the National Cancer Institute (NCI) Developmental Therapeutics Program Chemical Repository (34). The FDA-approved anticancer drug set is available from the NCI Developmental Therapeutics Program. […] The stock solutions were prepared in dimethyl sulfoxide (DMSO, Sigma-Aldrich, St. Louis, MO, cat. D2650) at 800-fold the tested concentration and stored at -70 degrees C prior to their use. All drugs and investigational agents were tested over a range starting from a high concentration at or near the clinical Cmax and decreasing in half-log increments. If the clinical Cmax for an agent had not been determined, the highest concentration tested was 10 microM.
2.3 Cell Culture. All cells were maintained in an incubator at 37 degrees C and 5% CO2 with 95% humidity. The PDC lines were cultured according to standard operating procedures established by the NCI PDMR. All PDCs were thawed and cultured in Matrigel-coated flasks prepared with a working solution of 1X Ham's F-12 nutrient mix, without supplementation (Invitrogen, cat. 11765054), 100 U/mL penicillin-streptomycin (Invitrogen, cat. 15140122), and 2.5% Matrigel (Corning Inc., cat. 354248) for the first three passages. The 857933-349-R-J2-PDC line was cultured in 6C/Colon 1B media, which includes advanced DMEM/F-12 (Thermo Fisher Scientific, cat. 12634028), 10 mM HEPES (Thermo Fisher Scientific, cat. 15630080), 1X GlutaMAX supplement (Thermo Fisher Scientific, cat. 35050061), 0.1 mg/mL primocin (InvivoGen, cat. ant-pm-2), 10% defined fetal bovine serum, heat inactivated (HyClone Laboratories Inc., cat. SH30070.03HI), 50% L-WRN conditioned media (ATCC, cat. CRL-3276), 1.25 mM N-Acetyl-L-cysteine (Sigma-Aldrich, cat. A9165), 10 mM nicotinamide (Sigma-Aldrich, cat. N0636), 1X B-27 supplement (Thermo Fisher Scientific, cat. 17504044), 1X N-2 supplement (Thermo Fisher Scientific, cat. 17502048), 10 microM Y-27632 dihydrochloride (Tocris Bioscience, cat. 1254), and 50 ng/mL human EGF recombinant protein (Thermo Fisher Scientific, cat. PHG0311). The 485176-168-R4-J1-PDC line was cultured in Panc media, which includes all 6C/Colon 1B media components plus 100 ng/mL human FGF-10 (Thermo Fisher Scientific, cat. 100-26), 500 nM SB-431542 (Selleckchem, cat. S1067), and gastrin (Tocris, cat. 3006).
[…]

Setting [1] is: compound alone, run of 02/26/2024.
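Note: spheroids exposed to the agents for seven days before readout.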
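Throughout, for viability, T/C: percent viability relative to DMSO vehicle control wells = 100%.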

With `CC(C)n1c(=O)n(C)c2cnc3cc(F)c(-c4ccc(OCCCN5CCCCC5)nc4)cc3c21`, the viability, T/C runs as follows: (compound 0.0316 µM) 104% and 100% and 97%; (compound 0.1 µM) 87.8% and 78.1% and 79%; (compound 0.316 µM) 102% and 101% and 90.2%; (compound 1 µM) 104% and 76.4% and 83.5%; (compound 3.16 µM) 93% and 75% and 78.9%; (compound 10 µM) 55.8% and 48.2% and 48.6%. Besides, the IC50 (curve of compound) is > 10000 nM and 9520 nM and 9660 nM.

Consider `CC1COCCN1c1cc(-c2ccnn2C)c2ccnc(-c3ccn[nH]3)c2n1` (stereo unspecified), for which the viability, T/C runs as follows: (compound 0.0316 µM) 91.4% and 103% and 81.2%; (compound 0.1 µM) 51.7% and 66.5% and 56.5%; (compound 0.316 µM) 36.6% and 36.5% and 32.7%; (compound 1 µM) 17.9% and 19.7% and 18.7%; (compound 3.16 µM) 22.7% and 13.6% and 13.7%; (compound 10 µM) 11.9% and 15.1% and 13.6%. Moreover, the 50% inhibitory concentration (IC50) (curve of compound) was 122 nM and 186 nM and 137 nM.

Turning to `CC1COCCN1c1cc(C2(O)CC3CCC(C2)O3)c2cnn(-c3ccn[nH]3)c2n1` (stereo unspecified), the viability, T/C reads like this: (compound 0.0316 µM) 116% and 87.6% and 93.3%; (compound 0.1 µM) 42.7% and 48.7% and 67.2%; (compound 0.316 µM) 23.7% and 29.9% and 29.5%; (compound 1 µM) 12.7% and 12.4% and 18.8%; (compound 3.16 µM) 10.2% and 10.5% and 10.9%; (compound 10 µM) 4.19% and 8.01% and 5.02%. Moreover, under “curve of compound”, the 50% inhibitory concentration (IC50) was 92.6 nM and 99.2 nM and 173 nM.

Consider `CC1COCCN1c1cc(C2(S(C)(=N)=O)CC2)nc(-c2ccnc3[nH]ccc23)n1` (stereo unspecified), for which the viability, T/C is, setting by setting: (compound 0.0316 µM) 98.9% (2×) and 94.3%; (compound 0.1 µM) 100% and 103% and 80.5%; (compound 0.316 µM) 79.7% and 97% and 97.8%; (compound 1 µM) 68% and 100% and 61%; (compound 3.16 µM) 67.9% and 60.8% and 37.7%; (compound 10 µM) 28.7% and 29.5% and 16.5%. The IC50 (curve of compound) was 4410 nM and 4700 nM and 1810 nM.

Take `CC[C@@]1(O)C(=O)OCc2c1cc1n(c2=O)Cc2cc3c(CN(C)C)c(O)ccc3nc2-1`: the viability, T/C was 91.8% and 98.4% and 103% (compound 0.000999 µM); 94% and 117% and 106% (compound 0.00316 µM); 93.8% and 93.5% and 91.8% (compound 0.00999 µM); 85.7% and 102% and 117% (compound 0.0316 µM); 80.3% and 103% and 96.4% (compound 0.0999 µM); 97.9% and 88% and 91.1% (compound 0.316 µM). Also, the 50% inhibitory concentration (IC50) (curve of compound) was > 316 nM.

For `CCc1c2c(nc3ccc(O)cc13)-c1cc3c(c(=O)n1C2)COC(=O)[C@]3(O)CC`, the viability, T/C (compound 0.000999 µM) was 94.3% and 102% and 120%; the viability, T/C (compound 0.00316 µM) was 83.9% and 104% and 97.4%; the viability, T/C (compound 0.00999 µM) is 87.7% and 72.2% and 92.2%; the viability, T/C (compound 0.0316 µM) is 64.8% and 104% and 70.9%; the viability, T/C (compound 0.0999 µM) was 80% and 86.2% and 77.4%; the viability, T/C (compound 0.316 µM) was 89.8% and 84.2% and 73.6%. Also, the IC50 (curve of compound) is > 316 nM.

Regarding `CN(C)c1ccc(Nc2c3ccc(NC(=O)CCN4CCCC4)cc3nc3cc(NC(=O)CCN4CCCC4)ccc23)cc1`, the viability, T/C is, setting by setting: (compound 0.0316 µM) 95.2% [middle of 12 runs]; (compound 0.316 µM) 95.5% [middle of 12 runs]; (compound 3.16 µM) 106% [middle of 12 runs]; (compound 10 µM) 98.3% [middle of 12 runs]. Besides, under setting [1], the IC50 is > 10000 nM.

`COc1ccc([C@@H](O)c2cc(-c3ncnc4cc(N5CCOCC5)ccc34)c(F)cc2Cl)nn1`: the viability, T/C runs as follows: (compound 0.0316 µM) 119% and 95% and 106%; (compound 0.1 µM) 103% and 97.4% and 85.3%; (compound 0.316 µM) 121% and 93.8% and 102%; (compound 1 µM) 89.3% and 96.7% and 82.5%; (compound 3.16 µM) 90.7% and 87.1% and 84.1%; (compound 10 µM) 43.1% and 49.8% and 47%. The half-maximal inhibitory concentration (IC50) (curve of compound) was 8530 nM and 9960 nM and 9310 nM.

In the case of `Cc1[nH]c2ccc(F)cc2c1-c1nc2c3cccnc3c3ncccc3c2[nH]1`, the viability, T/C runs as follows: (compound 0.0316 µM) 99.1% [middle of 12 runs]; (compound 0.316 µM) 95.6% [middle of 12 runs]. Further, the IC50 was > 10000 nM (compound alone, run of 02/20/2024) and > 10000 nM under setting [1].

`Cc1[nH]c2ccccc2c1CCNCc1ccc(/C=C/C(=O)NO)cc1`: the viability, T/C is, setting by setting: (compound 0.000999 µM) 99.9% and 96.8% and 89.5%; (compound 0.00316 µM) 87.9% and 114% and 103%; (compound 0.00999 µM) 94.2% and 94.3% and 96%; (compound 0.0316 µM) 96.9% and 88.8% and 85.4%; (compound 0.0999 µM) 60.7% and 72.7% and 67.3%; (compound 0.316 µM) 19.8% and 19.1% and 16.6%. The half-maximal inhibitory concentration (IC50) (curve of compound) was 135 nM and 159 nM and 147 nM.

In the case of `Cc1cccc(N(C)C(=O)C2C(O)CCN2c2nc(C)cc(C(F)(F)F)c2C#N)c1` (stereo unspecified), the viability, T/C by setting is: (compound 0.0316 µM) 96.8% and 97.5% and 104%; (compound 0.1 µM) 96.3% and 100% and 97.4%; (compound 0.316 µM) 99.6% and 98.6% and 93.5%; (compound 1 µM) 96.4% and 89.9% and 93.7%; (compound 3.16 µM) 103% and 83.6% and 97%; (compound 10 µM) 79.5% and 81.2% and 102%. Besides, for the setting “curve of compound”, the IC50 is > 10000 nM.

`Cn1ncnc1[C@H]1c2n[nH]c(=O)c3cc(F)cc(c23)N[C@@H]1c1ccc(F)cc1`: the viability, T/C was 105% (2×) and 104% (compound 0.000999 µM); 103% and 101% and 89.8% (compound 0.00316 µM); 92.7% and 94.7% and 116% (compound 0.00999 µM); 107% and 106% and 84.5% (compound 0.0316 µM); 88.5% and 94.8% and 95.9% (compound 0.0999 µM); 125% and 105% and 92.4% (compound 0.316 µM). Further, where the note is “curve of compound”, the IC50 is > 316 nM.

As for `O=C(c1cc(Cc2n[nH]c(=O)c3ccccc23)ccc1F)N1CCN(C(=O)C2CC2)CC1`, the viability, T/C is, setting by setting: (compound 0.0316 µM) 94.2% and 117% and 81.5%; (compound 0.1 µM) 111% and 86.5% and 85.5%; (compound 0.316 µM) 101% and 84.9% and 95.2%; (compound 1 µM) 115% and 101% and 91.1%; (compound 3.16 µM) 132% and 80.7% and 87.9%; (compound 10 µM) 97.2% and 71.2% and 88.4%. The IC50 (curve of compound) is > 10000 nM.

Broadly, the viability, T/C is the ratio of treated to control. What is called IC50 is the concentration that inhibits the measured activity by half.
